PMC12299463, “Cladolosides of Groups S and T: Triterpene Glycosides from the Sea Cucumber Cladolabes schmeltzii with Unique Sulfation; Human Breast Cancer Cytotoxicity and QSAR” (Marine Drugs, 2025)
Values joined by “and” are separate entries in the source; they are usually repeats but may differ in a detail not shown here. Identical values can stand only once. Counter-ions that a name gives are not always drawn. Like-named read-outs stand apart in the source and are kept apart here.

Legend:
[1] = tested on: MCF-7 human breast cancer cells; assay: cells; assay type: cell-based;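 further: IC50 values, including those behind the selectivity ratio, derive from formazan absorbance at 570 nm, tested in triplicate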
[2] = tested on: MDA-MB-231 triple-negative breast cancer cells; assay: cells; assay type: cell-based, human; conditions: for Selectivity Index (SI), MDA-MB-231: ratio of IC50 for healthy (MCF-10A) and MDA-MB-231 cells
[3] = tested on: human erythrocytes; assay: Hemolytic activity against human erythrocytes; assay type: cell-based; conditions: for ED50, Erythrocytes (hemolytic activity): 1 h at 37 °C
Protocol: A total of 450 g of human blood (B(III) Rh+) was used to obtain erythrocytes by centrifuging three times for 5 min with phosphate-buffered saline (PBS) (pH 7.4) at 4 °C on a centrifuge LABOFUGE 400R (Heraeus, Hanau, Germany). Ice-cold PBS (pH 7.4) was used for resuspension of erythrocyte residue to a final optical density of 1.5 at 700 nm. Then, 20 µL of tested compound solutions or control (cucumarioside A0-1 [15]) were added to 180 µL of erythrocyte suspension in V-bottom 96-well plates and incubated for 1 h at 37 °C. After centrifugation (900 g, 10 min, laboratory centrifuge LMC-3000 (Biosan, Riga, Latvia)), 100 µL of supernatant was transferred into new flat plates. The values of erythrocyte lysis were measured on microplate photometer Multiskan FC (Thermo Fisher Scientific, Waltham, MA, USA) at λ = 570 nm as hemoglobin concentration in supernatant. […] All the experiments were carried out in triple repetitions, p < 0.05.

[4] = tested on: T-47D human breast cancer cells; assay: cells; assay type: cell-based;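 further: cell viability read as absorbance of formazan dye at 570 nm, each experiment run in triplicate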
[5] = in vitro; assay type: cell-based, human; conditions: human
[6] = tested on: MCF-10A non-tumor mammary epithelial cell line; assay: in vitro; assay type: cell-based, human
[7] = Homo sapiens, MCF7, read-out: Cytotoxicity, IC50, MCF-7
[8] = Homo sapiens, MDA-MB-231, read-out: Cytotoxicity, IC50, MDA-MB-231
[9] = Homo sapiens, T47D, read-out: Cytotoxicity, IC50, T-47D

SMILES | IC50 [1, 7] [µM] | IC50 [2, 8] [µM] | Selectivity Index (SI), MDA-MB-231 [2] | Hemolytic (membranolytic) activity, in words [3] | ED50, Erythrocytes (hemolytic activity) [3] | IC50 [4, 9] [µM] | Selectivity Index (SI), T-47D ([4]; ratio of IC50 for healthy (MCF-10A) and T-47D cells) | IC50 [5] [µM] | IC50 [1] [µM] | IC50 [2] [µM] | ED50, Erythrocytes (hemolytic activity) ([3]; listed as cladoloside C3 (16)) [µM] | IC50 [4] [µM] | IC50 [6] [µM] | IC50 ([1]; MTT assay, MCF-7, read-out: Cytotoxicity, IC50, MCF-7) [µM] | IC50 ([2]; MTT assay, MDA-MB-231, read-out: Cytotoxicity, IC50, MDA-MB-231) [µM] | IC50 ([4]; MTT assay, T-47D, read-out: Cytotoxicity, IC50, T-47D) [µM] | IC50 ([6]; MTT assay, MCF-10A, read-out: Cytotoxicity, IC50, MCF-10A) [µM]
C=C(C)CC[C@@H](OC(C)=O)[C@]1(C)OC(=O)C23CC=C4[C@@H](CC[C@H]5C(C)(C)[C@@H](O[C@@H]6OC[C@@H](O[C@@H]7OC[C@@H](O)[C@H](O)[C@H]7O)[C@H](O)[C@H]6O[C@@H]6O[C@H](C)[C@@H](O[C@@H]7OC[C@@H](O)[C@H](O[C@@H]8O[C@H](COS(=O)(=O)O)[C@@H](O)[C@H](OC)[C@H]8O)[C@H]7O)[C@H](O)[C@H]6O)CC[C@]45C)[C@]2(C)C[C@H](OC(C)=O)[C@@H]31 (stereo partly drawn) [Cladoloside S (1), 3β-O-{6-O-sodium sulfate-3-O-methyl-β-D-glucopyranosyl-(1→3)-β-D-xylopyranosyl-(1→4)-β-D-quinovopyranosyl-(1→2)-[(1→4)-β-D-xylopyranosyl]-β-D-xylopyranosyl}-16S,22R-diacetoxyholosta-9,25-diene] | > 20 | 13.2 ± 1.08 | >1.51 | moderately active | 3.40 ± 0.25 µM | 14.8 ± 0.71 | >1.35 | > 20 |  |  |  |  |  |  |  |  | 
CO[C@@H]1[C@@H](O)[C@H](O[C@@H]2[C@@H](O)[C@H](O[C@H]3[C@H](O)[C@@H](O)[C@H](O[C@H]4[C@H](O[C@H]5CC[C@]6(C)C7=CCC89C(=O)O[C@@](C)([C@@H](CCC(C)C)OC(C)=O)[C@H]8[C@@H](OC(C)=O)C[C@@]9(C)[C@@H]7CC[C@H]6C5(C)C)OC[C@@H](O[C@@H]5OC[C@@H](O)[C@H](O)[C@H]5O)[C@@H]4O)O[C@@H]3C)OC[C@H]2O)O[C@H](COS(=O)(=O)O)[C@H]1O (stereo partly drawn) [Cladoloside S1 (2), 3β-O-{6-O-sodium sulfate-3-O-methyl-β-D-glucopyranosyl-(1→3)-β-D-xylopyranosyl-(1→4)-β-D-quinovopyranosyl-(1→2)-[(1→4)-β-D-xylopyranosyl]-β-D-xylopyranosyl}-16S,22R-diacetoxyholost-9-en] | > 20 | > 20 |  | moderately active | 4.78 ± 0.30 µM | > 20 |  | > 20 |  |  |  |  |  |  |  |  | 
C=C(C)CC[C@@H](OC(C)=O)[C@]1(C)OC(=O)C23CC=C4[C@@H](CC[C@H]5C(C)(C)[C@@H](O[C@@H]6OC[C@@H](O[C@@H]7O[C@H](CO)[C@@H](O)[C@H](O[C@@H]8O[C@H](CO)[C@@H](O)[C@H](OC)[C@H]8O)[C@H]7O)[C@H](O)[C@H]6O[C@@H]6O[C@H](C)[C@@H](O[C@@H]7OC[C@@H](O)[C@H](O[C@@H]8O[C@H](CO)[C@@H](O)[C@H](OC)[C@H]8O)[C@H]7O)[C@H](O)[C@H]6O)CC[C@]45C)[C@]2(C)C[C@H](O)[C@@H]31 (stereo partly shown) [C3 (16), cladoloside C3] |  |  |  |  | 12.10 ± 0.58 µM |  |  |  | > 20 | > 20 | 12.10 | > 20 | > 20 |  |  |  | 
C=C(C)CC[C@@H](OC(C)=O)[C@]1(C)OC(=O)C23CC=C4[C@@H](CC[C@H]5C(C)(C)[C@@H](O[C@@H]6OC[C@@H](O[C@@H]7O[C@H](CO)[C@@H](O)[C@H](O[C@@H]8O[C@H](CO)[C@@H](O)[C@H](OC)[C@H]8O)[C@H]7O)[C@H](O)[C@H]6O[C@@H]6O[C@H](C)[C@@H](O[C@@H]7OC[C@@H](O)[C@H](O[C@@H]8O[C@H](CO)[C@@H](O)[C@H](OS(=O)(=O)O)[C@H]8O)[C@H]7O)[C@H](O)[C@H]6O)CC[C@]45C)[C@]2(C)C[C@H](OC(C)=O)[C@@H]31 (stereo partly drawn) [Cladoloside T (3), 3β-O-{3-O-sodium sulfate-β-D-glucopyranosyl-(1→3)-β-D-xylopyranosyl-(1→4)-β-D-quinovopyranosyl-(1→2)-[3-O-methyl-β-D-glucopyranosyl-(1→3)-β-D-glucopyranosyl-(1→4)]-β-D-xylopyranosyl}-16S,22R-diacetoxyholosta-9,25-diene] |  |  |  |  | 0.39 µM and 0.39 ± 0.03 µM |  |  |  | 8.99 ± 0.61 | 3.41 ± 0.33 |  | 8.21 ± 0.72 | 8.23 ± 0.52 |  |  |  | 
C=C(C)CCC[C@]1(C)OC(=O)C23CC=C4[C@@H](CC[C@H]5C(C)(C)[C@@H](O[C@@H]6OC[C@@H](O[C@@H]7O[C@H](CO)[C@@H](O)[C@H](O[C@@H]8O[C@H](COS(=O)(=O)[O-])[C@@H](O)[C@H](OC)[C@H]8O)[C@H]7O)[C@H](O)[C@H]6O[C@@H]6O[C@H](C)[C@@H](O[C@@H]7OC[C@@H](O)[C@H](O)[C@H]7O)[C@H](O)[C@H]6O)CC[C@]45C)[C@]2(C)CC(=O)[C@@H]31.[Na+] (stereo partly shown) [Cladoloside J1 (30), Cladoloside J1] |  |  | >3.24 |  | 1.10 ± 0.10 µM |  |  |  |  |  |  |  |  | > 20 | 6.18 ± 0.54 | > 20 | > 20
